Results from US20260283988A1, “FERROPTOSIS INHIBITORS” (priority 2023, published 2026).
Like-named read-outs stand apart in the source and are kept apart here.

How the values were obtained:
[1] = test system: Mouse Embryonic Fibroblasts (MEF); experiment: Necroptosis assay, TNFα + zVAD-FMK + LCL161, cell viability; format: cell-based
Procedure: For detecting necroptosis, MEF were treated with TNFα, zVAD-FMK and LCL161 before addition of Seratrodast or Necrostatin-1. Cell viability was measured after 18 hours by adding CellTiter-Glo® 2.0 Reagent (Promega) according to the manufacturer's instruction and luminescence was read out.

[2] = test system: HT-1080; experiment: Ferroptosis inhibition, cell viability assay (CellTiter-Glo); format: cell-based, Human; conditions: for IC50: read-out: IC50 (Ferroptosis inhibition); for cellular efficacy/toxicity window: cytotoxic IC50 versus ferroptosis inhibition IC50, 1080 min
Procedure: Cell lines: Human fibrosarcoma cell line HT-1080 and immortalized Mouse Embryonic Fibroblasts (MEF). MEFs were a gift from Daniel Krappmann, HT-1080 were purchased from ATCC and both cell lines were grown in Dulbecco's Modified Eagle's medium (Thermo Fisher Scientific, 41966-029) supplemented with 10% fetal bovine serum (FBS, Thermo Fisher Scientific), 1% Penicillin-Streptomycin (Thermo Fisher Scientific) and 1% nonessential amino acids (MEM NEAA, Thermo Fisher Scientific). Cells were grown at 37° C. and 5% CO2.
HT-1080 were seeded into 384-well plates (CulturPlates, PerkinElmer) with a density of 750 cells per well. After 24 h of growth, cells were treated with 10 or 12-point serial dilutions of compounds in indicated concentrations for 18 h. Viability was detected by using CellTiter-Glo® 2.0 Regent (Promega) according to the manufacturer's instruction and luminescence was read out in an EnVison 2104 Multilabel plate reader (PerkinElmer).

[3] = Cytotoxicity, cell viability assay; format: cell-based, Human; conditions: human, ht-1080 cells, * = signal quenching at higher concentration, toxicity might be less than indicated; read-out: cytotoxic IC50
Procedure: (§1) After 24 h of growth, cells were treated with 10 or 12-point serial dilutions of compounds in indicated concentrations for 18 h.

[4] = test system: HT-1080; experiment: Cytotoxicity, cell viability assay; format: cell-based, Human; conditions: * = signal quenching at higher concentration, toxicity might be less than indicated; 1080 min; read-out: cytotoxic IC50
Procedure: as §1

[5] = test system: HT-1080; experiment: Apoptosis assay, Staurosporine-induced Caspase 3/7 activity (Caspase-Glo 3/7); format: cell-based, Human
Procedure: For detecting apoptosis, HT-1080 were treated with Staurosporine before addition of Seratrodast or zVAD-FMK. Caspase 3/7 activity was measured 18 hours later via Caspase-Glo® 3/7 Assay Reagent (Promega) according to the manufacturer's instruction. Cells were incubated for 45 min at room temperature and luminescence was measured.

[6] = Cell-free BODIPY assay with AAPH; format: biochemical; conditions: 25 μM compound; 7.5 mM AAPH
Procedure: As a control, the same amount of DMSO was diluted in 150 μl PBS. […] For the non-oxidized control, one sample was prepared as DMSO only without AAPH. All three solutions were mixed equally and incubated for 30 min at room temperature in the dark.

[7] = test system: HT-1080-derived spheroids; experiment: 3D spheroid formation and imaging (roundness); format: cell-based, Human; conditions: 200 nM RSL3; 2 μM Fer-1; 6 μM Seratrodast, 48 h
Procedure: Over a period of 48 h spheroids were formed and subsequently treated with RSL3, and Ferrostatin-1 or Seratrodast. […] Images were acquired using an Operetta high-content imaging system (PerkinElmer) and analyses were conducted with the Columbus software (PerkinElmer). For analysis, spheroids were detected as “Image region” and morphology properties were calculated (roundness).

[8] = test system: HT-1080; experiment: Flow cytometry, 4-Hydroxynonenal (4-HNE) immunostaining; format: cell-based, Human; conditions: 300 nM RSL3; 6 μM Seratrodast, 2 h
Procedure: (§2) HT1080 cells were grown in 6-well plates (200,000 cells per well) and incubated for 24 h. For staining with BODIPY 581/591 C11 (Thermo Fisher Scientific), cells were treated with RSL3, and Ferrostatin-1 or Seratrodast for 2 h, then BODIPY was added into the wells to a final concentration of 2 μM. After 30 min incubation, cells were detached using Trypsin and washed two times with PBS. Between the wash steps, cells were centrifuged at 500×g for 5 minutes. After the final washing step, cell pellets were resuspended in 300 μl PBS and 10,000 events per condition were analyzed in the BL-1 channel of an Attune acoustic flow cytometer (Applied Biosystems). For detection of 4-Hydroxynonenal (4-HNE), HT-1080 were induced with RSL3, and co-treated with Ferrostatin-1 or Seratrodast for 2 h before they were detached using Trypsin. Cell pellets were incubated in 10% normal goat serum (Thermo Fisher Scientific) for 30 min on ice. Subsequently, cells were incubated with anti-4-HNE antibody (1:50 dilution in 1% BSA in PBS, ab46545, Abcam) for 1 h on ice. […] For flow cytometry, cells were collected in 300 μl PBS and 10,000 events per condition were analyzed in an Attune acoustic flow cytometer (Applied Biosystems), using the BL-1 channel. FlowJo™ v10.8.1 (BD Life Sciences) was used for creating histograms and analyzing fluorescence intensity.

[9] = test system: HT-1080; experiment: TBARS assay (MDA levels); format: cell-based, Human; conditions: 250 nM RSL3; 6 μM Seratrodast, 2.5 h
Procedure: 2 million HT-1080 cells were seeded into 150 mm dishes and grown for 48 hours. Ferroptosis was induced with RSL3 for 2.5 hours and cells were co-treated with Ferrostatin-1 or Seratrodast. Cells were detached by 0.05% Trypsin-EDTA (Thermo Fisher Scientific) and cell number was adjusted to the sample with the lowest cell count. For measuring MDA levels, TBARS (TCA Method) Assay Kit (Cayman Chemical, 700870) was used according to manufacturer's instruction. Fluorescence was detected at 530 nm/550 nm in an EnVision 2104 Multilabel plate reader (PerkinElmer).

[10] = test system: HT-1080; experiment: Flow cytometry, BODIPY 581/591 C11 lipid peroxidation sensor; format: cell-based, Human; conditions: 200 nM RSL3; 6 μM Seratrodast, 2.5 h
Procedure: as §2

[11] = Homo sapiens, HT-1080, based on the assays of example 1
[12] = based on the assays of example 1

Compound | Necroptosis inhibition [1] | IC50 [2, 11] | cellular efficacy/toxicity window [2] | CC50 at 18 h [3] | Apoptosis inhibition [5] | other results
O=C1C=C(C(c2ccccc2)c2ccccc2)C(=O)c2ccccc21 [iQFerr29, 2-diphenylmethyl-1,4-naphtoquinone] | no | 3.91 nM | 1277-fold | 4990 nM |  | 
Cc1ccc(NC2=C(Cl)C(=O)c3ccccc3C2=O)c(C)c1 [iQFerr35, 2-chloro-3-[(2,4-dimethylphenyl)amino]-1,4-dihydronaphthalene-1,4-dione] |  |  | 8051-fold |  |  | IC50 [2, 12]: 0.692 nM; CC50 [4]: 5570 nM
CC(=O)Nc1ccc(NC2=C(C)C(=O)c3ccccc3C2=O)cc1 [iQFerr39, N-{4-[(3-methyl-1,4-dioxo-1,4-dihydronaphthalen-2-yl)amino]phenyl} acetamide] | no | 17 nM | 2561-fold | 43500 nM | no | 
Cc1ccc(N(CCCCCC(N)=O)C2=CC(=O)c3ccccc3C2=O)c(C)c1 [iQFerr43, 6-[(2,4-dimethylphenyl)(1,4-dioxo-1,4-dihydronaphthalen-2-yl)amino]hexanamide] | no | 116 nM | 653-fold | 75400 nM | no | 
CC(=O)c1ccc(NC2=C(Cl)C(=O)c3ccccc3C2=O)cc1 [iQFerr02, NQ301] | no | 27 nM | 28-fold | 759 nM |  | 
CC(=O)Nc1ccc(NC2=CC(=O)c3ccccc3C2=O)cc1 [iQFerr20, N-[4-(1,4-dioxo-1,4-dihydronaphthalen-2-yl-amino)phenyl]acetamide] | no | 8.12 nM | 1254-fold | 10200 nM | no | 
CC1=C(Nc2ccc(C)cc2C)C(=O)c2ccccc2C1=O [iQFerr41, 2-[(2,4-dimethylphenyl)amino]-3-methyl-1,4-dihydronaphthalene-1,4-dione] | no | 2.91 nM | 4601-fold | 13400 nM | no | 
CCOC(=O)c1ccc(NC2CCCCC2)c(N)c1 [Ferrostatin-1] |  |  |  |  |  | oxidative fluorescence induced by AAPH (cell-free C11-BODIPY) [6]: significantly reduced oxidative fluorescence; inhibition of ferroptosis in 3D spheroid model (spheroid roundness) [7]: fully inhibited ferroptosis-based spheroid destruction
Cc1ccc(N(CCCCCC(=O)O)C2=CC(=O)c3ccccc3C2=O)c(C)c1 [iQFerr38, 6-[(2,4-dimethylphenyl)(1,4-dioxo-1,4-dihydronaphthalen-2-yl)amino]hexanoic acid] | no | 215 nM | 232-fold | 49800 nM | no | 
CC1=C(C)C(=O)C(C(CCCCCC(=O)O)c2ccccc2)=C(C)C1=O (stereo not drawn) [iQFerr01, Seratrodast, reference compound] | no | 290 nM | 200-fold | 57900 nM | no | RSL3-induced 4-hydroxynonenal (4-HNE) levels [8]: reduced; inhibition of necroptosis ([1]; 6 μM, 20 ng/ml TNFα + 10 μM Z-VAD-FMK + 10 μM LCL161 for 18 h): does not inhibit necroptosis; inhibition of apoptosis ([5]; 6 μM, 1 μM Staurosporine, 18 h): does not inhibit apoptosis; suppression of ferroptosis (cell viability) ([2]; 100 nM RSL3 or 1.5 μM IKE for 18 h): dose-dependently suppresses ferroptosis; inhibition of ferroptosis induced by RSL3, IKE, FINO2 and FIN56 ([2]; 6 μM Seratrodast, 2 μM Fer-1, 18 h): able to suppress ferroptosis induced by all four FINs; RSL3-induced malondialdehyde (MDA) levels [9]: eliminated levels of malondialdehyde; RSL3-mediated peroxidation of the C11-BODIPY sensor [10]: largely reduced; oxidative fluorescence induced by AAPH (cell-free C11-BODIPY) [6]: significantly reduced oxidative fluorescence; inhibition of ferroptosis in 3D spheroid model (spheroid roundness) [7]: fully inhibited ferroptosis-based spheroid destruction
Cc1ccc(NC2=C(Cl)C(=O)c3ccccc3C2=O)c(C)c1 [iQFerr14, 2-chloro-3-(2,4-dimethylanilino)-1,4-naphtoquinone] |  |  | 5000-fold |  |  | IC50 [2, 12]: 0.034 nM; CC50 [4]: 1000 nM
Cc1ccc(NC2=C(C(F)(F)F)C(=O)c3ccccc3C2=O)c(C)c1 [iQFerr47, 2-[(2,4-dimethylphenyl)amino]-3-(trifluoromethyl)-1,4-dihydronaphthalene-1,4-dione] | no | 10.1 nM | 1458-fold | 14700 nM | no | 
CC1=C(Nc2cc(C)cc(C)c2)C(=O)c2ccccc2C1=O [iQFerr46, 2-[(3,5-dimethylphenyl)amino]-3-methyl-1,4-dihydronaphthalene-1,4-dione] | no | 2.11 nM | 36758-fold | 77600 nM | no | 
CC(=O)Nc1ccc(NC2=C(C(F)(F)F)C(=O)c3ccccc3C2=O)cc1 [iQFerr44, N-(4-{[1,4-dioxo-3-(trifluoromethyl)-1,4-dihydronaphthalen-2-yl]amino}phenyl) acetamide] | no | 30.9 nM | 1901-fold | 58800 nM |  | 
Cc1ccc(CC2=CC(=O)c3ccccc3C2=O)cc1 [iQFerr30, 2-(4-methylbenzyl)-1,4-naphtoquinone] |  | 38.4 nM | 132-fold | 5060 nM |  | 
CCc1ccc(NC2=C(Cl)C(=O)c3ccccc3C2=O)cc1 [iQFerr10, 2-chloro-3-(4-ethylanilino)-1,4-naphtoquinone] |  | 8 nM | 105-fold | 844 nM |  | 
CN(C)c1ccc(NC2=CC(=O)c3ccccc3C2=O)cc1 [iQFerr19, 2-[4-(dimethylamino)-anilino]-1,4-naphtoquinone] |  | 32.2 nM | 182-fold | 5850 nM |  | 
